Patent US20130273649A1, “Culture medium for pluripotent stem cells” (UNIVERSITY OF SOUTHERN CALIFORNIA, priority 2012, published 2013)

Assays:
Wnt pathway = details: relative to IWR-1; cited from earlier work
H9 human ESCs = test: Human ESC self-renewal culture; type: cell-based; details: compared to IWR-1, XAV939 and JW55
Source text: As human ESCs share defining features with mouse EpiSCs (Hanna et al., 2010; Rossant, 2008; Tesar et al., 2007), we tested whether modulating β-catenin function can also promote human ESC self-renewal. […] Next, we examined the effect of CHIR/XAV and CHIR/IWR-1 on human ESC self-renewal. […] Similar results were obtained in H1 and HES3 human ESCs (data not shown). […] Moreover, human ESCs maintained in CHIR/IWR-1 express pluripotency markers Oct4, Nanog and Sox2 (FIG. 7E), and retain the ability to differentiate into cells of all three germ layers, both in vitro and in vivo (FIGS. 7F and 7G).
(§1) The basal medium for mouse EpiSC culture is the conventional mouse ESC medium, which consists of GMEM (Sigma) supplemented with 10% fetal bovine serum (FBS) (Hyclone), 2 mM L-glutamine (Invitrogen), 1 mM sodium pyruvate (Invitrogen), 1% nonessential amino acids (Invitrogen), and 0.1 mM (3-mercaptoethanol. Mouse EpiSCs were derived and maintained in the basal medium supplemented with FGF2/activin, CHIR/XAV, or CHIR/IWR-1. The basal medium for rat EpiSC culture is N2B27 (Tong et al., 2011), which was prepared by mixing 500 ml of DMEM/F12 (Invitrogen) with 500 ml of Neurobasal™ medium (Invitrogen), and adding 5 ml of N2 (Invitrogen), 10 ml of B27 (Invitrogen), 5 ml of Glutamax™ (Invitrogen), and 1 ml of 0.1 M β-mercaptoethanol (Sigma). The basal medium for human ESC culture consists of Knockout™ DMEM/F12 supplemented with 20% KSR (Invitrogen), 1% nonessential amino acids, 2 mM L-glutamine, and 0.1 mM (3-mercaptoethanol. Human ESCs were cultured in the basal medium supplemented with FGF2, CHIR/XAV, or CHIR/IWR-1.
H1, H9, HES-2 and HES-3 human ESC lines were kindly provided by the University of Southern California Stem Cell Core Facility. Human ESCs were routinely maintained on γ-irradiated MEF feeders in Knockout™ DMEM medium (Invitrogen) supplemented with 20% Knockout™ serum replacement (KSR; Invitrogen), 10 ng/ml FGF2 (PeproTech), 1% nonessential amino acids, 2 mM L-glutamine, and 0.1 mM β-mercaptoethanol. […]

mouse EpiSCs = test: Mouse EpiSC self-renewal culture; type: cell-based; details: compared to IWR-1, XAV939 and JW55
Source text: We therefore reasoned that if CHIR induces EpiSC differentiation through stabilization of β-catenin, de-stabilization of β-catenin might promote EpiSC self-renewal. We tested this hypothesis by administering the tankyrase inhibitor XAV939 to mouse EpiSC cultures. XAV939-mediated inhibition of tankyrase stabilizes Axin, leading to the formation of the β-catenin destruction complex, composed of GSK3, Axin and adenomatous polyposis coli (APC) (Huang et al., 2009). […] EpiSCs cultured in CHIR/XAV could be routinely passaged by single-cell dissociation and replating onto gelatin-coated dishes, and could be cryo-preserved and recovered at high efficiency by standard techniques.
final concentrations: CHIR99021 (3 μM), PD0325901 (1 μM), XAV939 (Sigma, 2 μM), IWR-1 (Sigma, 2.5 μM), IWP-2 (Stemgent, 2.5 μM), Pyrvinium (Sigma, 100 nM), recombinant human FGF2 (PeproTech, 10 ng/ml), and recombinant human activin A (PeproTech, 10 ng/ml). CHIR99021 and PD0325901 were synthesized in the Division of Signal Transduction Therapy, University of Dundee, UK.
as §1
Post-implantation epiblasts were isolated from mouse or rat embryos and dissociated into small clumps as previously described (Chenoweth and Tesar, 2010). Epiblast fragments were placed into 4-well plates pre-coated with 0.1% gelatin (for mouse epiblasts) or pre-seeded with γ-irradiated mouse embryonic fibroblasts (MEFs) (for rat epiblasts) and cultured in either the FGF2/activin or the CHIR/XAV conditions. Emerging EpiSCs were trypsinized and expanded every 2-3 days at a subculture ratio of 1:4. Animal experiments were performed according to the investigator's protocols approved by the University of Southern California Institutional Animal Care and Use Committee.

O=C1C([C@H]2CC[C@H](C(=O)Nc3cccc4cccnc34)CC2)C(=O)[C@H]2[C@H]3CC[C@H](C3)[C@@H]12 (stereo partly drawn) [53AH, (1R,4r)-4-((2s,3aR,4R,7S,7aS)-1,3-dioxooctahydro-1H-4,7-methanoinden-2-yl)-N-(quinolin-8-yl)cyclohexanecarboxamide]
potency in Wnt inhibition compared to IWR-1 (Wnt pathway): 5 fold | robustness for long-term expansion of human ESCs (H9 human ESCs): more robust for long-term expansion | robustness for long-term expansion of mouse EpiSCs (mouse EpiSCs): more robust for long-term expansion
